Measured values published in paper PMC10066365, “Nemacol is a small molecule inhibitor of C. elegans vesicular acetylcholine transporter with anthelmintic potential” (Nature Communications, 2023).
“And” between values parts separate entries of the source, which are not always exact repeats. Identical values can stand only once. Like-named read-outs stand apart in the source and are kept apart here.

Tested on: C. elegans unc-17 mutants
[1] = unc-17 (e245), 15 µM, 60 min, adult worms, average of 3 biological repeats
[2] = unc-17 (e245), 30 µM, 60 min, adult worms, average of 3 biological repeats
[3] = unc-17 (e245), 60 µM, 60 min, adult worms, average of 3 biological repeats
[4] = unc-17 (e245), 15 µM, 60 min, single Bio Rep
[5] = unc-17 (e245), 30 µM, 60 min, single Bio Rep
[6] = unc-17 (e245), 60 µM, 60 min, single Bio Rep
[7] = unc-17 (e327), 15 µM, 60 min, single Bio Rep
[8] = unc-17 (e327), 30 µM, 60 min, single Bio Rep
[9] = unc-17 (e327), 60 µM, 60 min, single Bio Rep
[10] = unc-17 (e795), 15 µM, 60 min, average of 3 biological repeats
[11] = unc-17 (e795), 15 µM, young adult, average of 3 biological repeats
[12] = unc-17 (e795), 30 µM, young adult, average of 3 biological repeats
[13] = unc-17 (e795), 60 µM, young adult, average of 3 biological repeats

Method: Significance was calculated using Fisher’s method (one-sided comparisons; see 'Methods'). […] Worms were incubated on the plates for 60 min.
Locomotor phenotype analyses were done in 24-well plates with 1 mL of MYOB substrate (27.5 g Trizma HCl, 12 g Trizma Base, 230 g bacto tryptone, 10 g NaCl, 0.4 g cholesterol (95%)) seeded with 25 µL of OP50 Escherichia coli on each well. Each compound was added to the MYOB substrate before pouring to achieve the desired final concentrations of 30 µM or 60 µM after diffusion through the media. Synchronized young adult worms are transferred into each well using a platinum wire pick. A Leica MZ75 stereomicroscope was used to visualize the movement of worms on the solid substrate. The specific dominant locomotor phenotype (i.e. ‘Punc’, ‘paralyzed’, ‘coiler’ or ‘wild-type locomotion’) was scored after the touch on the head with a platinum wire over a ~3–5 s of observation. […] Coiled animals were not scored as paralyzed despite sometimes not responding to light touch.

O=[N+]([O-])c1ccc(N2CCN(CC3CCCCC3)CC2)cc1 [Nemacol-1]
Fraction Coiled [1]: 0.83
Fraction Jerky-Unc [1]: 0.17
Fraction No Phenotype [1]: 0.00
Fraction Parayzed [1]: 0.00
Fraction Coiled [2]: 0.78
Fraction Jerky-Unc [2]: 0.13
Fraction No Phenotype [2]: 0.00
Fraction Parayzed [2]: 0.09
Fraction Coiled [3]: 0.80
Fraction Jerky-Unc [3]: 0.0556
Fraction No Phenotype [3]: 0.00
Fraction Parayzed [3]: 0.15
Fraction Coiled, Averages of 3 biological repeats (unc-17 (e245), 15 µM, 60 min): 0.78
Fraction Jerky-Unc, Averages of 3 biological repeats (unc-17 (e245), 15 µM, 60 min): 0.19
Fraction No Phenotype, Averages of 3 biological repeats (unc-17 (e245), 15 µM, 60 min): 0.00
Fraction Parayzed, Averages of 3 biological repeats (unc-17 (e245), 15 µM, 60 min): 0.037
C1 (loose coil) worm count [4]: 4 and 2 and 3
C2 (tight coil) worm count [4]: 11 and 12 and 10
Fraction Coiled [4]: 0.72 and 0.83 and 0.78
Fraction Jerky-Unc [4]: 0.1667 and 0.2222
Fraction No Phenotype [4]: 0.00
J (jerky-unc) worm count [4]: 3 and 4
NP (no phene) worm count [4]: 0
Fraction Coiled, Averages of 3 biological repeats (unc-17 (e245), 30 µM, 60 min): 0.87
Fraction Jerky-Unc, Averages of 3 biological repeats (unc-17 (e245), 30 µM, 60 min): 0.0741
Fraction No Phenotype, Averages of 3 biological repeats (unc-17 (e245), 30 µM, 60 min): 0.00
Fraction Parayzed, Averages of 3 biological repeats (unc-17 (e245), 30 µM, 60 min): 0.0556
C1 (loose coil) worm count [5]: 2 and 1
C2 (tight coil) worm count [5]: 14 and 15 and 13
Fraction Coiled [5]: 0.83 and 0.89
Fraction No Phenotype [5]: 0.00
NP (no phene) worm count [5]: 0
Fraction Coiled, Averages of 3 biological repeats (unc-17 (e245), 60 µM, 60 min): 0.76
Fraction Jerky-Unc, Averages of 3 biological repeats (unc-17 (e245), 60 µM, 60 min): 0.037
Fraction No Phenotype, Averages of 3 biological repeats (unc-17 (e245), 60 µM, 60 min): 0.00
Fraction Parayzed, Averages of 3 biological repeats (unc-17 (e245), 60 µM, 60 min): 0.20
C1 (loose coil) worm count [6]: 4 and 2
C2 (tight coil) worm count [6]: 12 and 8 and 11
Fraction Coiled [6]: 0.83 and 0.89 and 0.56
Fraction No Phenotype [6]: 0.00
NP (no phene) worm count [6]: 0
Fraction Coiled, Averages of 3 biological repeats (unc-17 (e327), 15 µM, 60 min): 0.77
Fraction Jerky-Unc, Averages of 3 biological repeats (unc-17 (e327), 15 µM, 60 min): 0.15
Fraction No Phenotype, Averages of 3 biological repeats (unc-17 (e327), 15 µM, 60 min): 0.00
Fraction Parayzed, Averages of 3 biological repeats (unc-17 (e327), 15 µM, 60 min): 0.08
C1 (loose coil) worm count [7]: 3 and 4
C2 (tight coil) worm count [7]: 10 and 12 and 8
Fraction Coiled [7]: 0.75 and 0.72 and 0.83
Fraction Jerky-Unc [7]: 0.125 and 0.1667
Fraction No Phenotype [7]: 0.00
J (jerky-unc) worm count [7]: 3 and 2
NP (no phene) worm count [7]: 0
Fraction Coiled, Averages of 3 biological repeats (unc-17 (e327), 30 µM, 60 min): 0.66
Fraction Jerky-Unc, Averages of 3 biological repeats (unc-17 (e327), 30 µM, 60 min): 0.12
Fraction No Phenotype, Averages of 3 biological repeats (unc-17 (e327), 30 µM, 60 min): 0.00
Fraction Parayzed, Averages of 3 biological repeats (unc-17 (e327), 30 µM, 60 min): 0.23
C1 (loose coil) worm count [8]: 2 and 4
C2 (tight coil) worm count [8]: 8 and 9 and 7
Fraction Coiled [8]: 0.69 and 0.56 and 0.72
Fraction No Phenotype [8]: 0.00
NP (no phene) worm count [8]: 0
Fraction Coiled, Averages of 3 biological repeats (unc-17 (e327), 60 µM, 60 min): 0.48
Fraction Jerky-Unc, Averages of 3 biological repeats (unc-17 (e327), 60 µM, 60 min): 0.037
Fraction No Phenotype, Averages of 3 biological repeats (unc-17 (e327), 60 µM, 60 min): 0.00
Fraction Parayzed, Averages of 3 biological repeats (unc-17 (e327), 60 µM, 60 min): 0.48
C1 (loose coil) worm count [9]: 4 and 3 and 2
Fraction No Phenotype [9]: 0.00
NP (no phene) worm count [9]: 0
P (paralyzed) worm count [9]: 8 and 6 and 12
Fraction Coiled [10]: 0.81
Fraction Jerky-Unc [10]: 0.09
Fraction No Phenotype [10]: 0.00
Fraction Parayzed [10]: 0.09
Fraction Coiled [11]: 0.74
Fraction Jerky-Unc [11]: 0.24
Fraction No Phenotype [11]: 0.00
Fraction Parayzed [11]: 0.0185
Fraction Coiled [12]: 0.83
Fraction Jerky-Unc [12]: 0.0556
Fraction No Phenotype [12]: 0.00
Fraction Parayzed [12]: 0.11
Fraction Coiled [13]: 0.63
Fraction Jerky-Unc [13]: 0.0556
Fraction No Phenotype [13]: 0.00
Fraction Parayzed [13]: 0.31
Fraction Coiled (unc-17 (md414), 15 µM, 60 min, adult worms, average of 3 biological repeats): 0.19
